From paper PMC9150124, “Design of a Potent, Selective, and Brain-Penetrant Inhibitor of Wnt-Deactivating Enzyme Notum by Optimization of a Crystallographic Fragment Hit” (Journal of Medicinal Chemistry, 2022)

How the values were obtained:
Assay in all cases: SelectScreen kinase profiling, SSBK LanthaScreen Binding SP Technology
[1] = target: kinase named in conditions (Homo sapiens, UniProt Q92918); conditions: MAP4K1 (HPK1), 10 μM
Description: (§1) Kinase selectivity screening was performed by Thermo Fisher Scientific (Paisley, U.K.) in their SelectScreen Biochemical Kinase Profiling Service. Assay information and data are presented in the Supporting Information.
(§2) Kinase selectivity screening was performed by ThermoFisher Scientific (Paisley, U.K.) in their SelectScreenTM
(§3) Biochemical Kinase Profiling service .
(§4) Illustration reproduced courtesy of Cell Signaling technology, Inc.
(§5) (B) Illustration of phylogenetic tree of kinases screened.

[2] = target: kinase named in conditions (Homo sapiens, UniProt Q09013); conditions: DMPK, 10 μM
Description: as §1, §2, §3, §4, §5

[3] = target: kinase named in conditions (Homo sapiens, UniProt P10721, N822K); conditions: KIT N822K, 10 μM
Description: as §1, §2, §3, §4, §5

[4] = target: kinase named in conditions (Homo sapiens, UniProt Q9H2K8); conditions: TAOK3 (JIK), 10 μM
Description: as §1, §2, §3, §4, §5

[5] = target: kinase named in conditions (Homo sapiens, UniProt P53667); conditions: LIMK1, 10 μM
Description: as §1, §2, §3, §4, §5

[6] = target: kinase named in conditions (Homo sapiens, UniProt Q15375); conditions: EPHA7, 10 μM
Description: as §1, §2, §3, §4, §5

[7] = target: kinase named in conditions (Homo sapiens, UniProt Q86YV6); conditions: MYLK4, 10 μM
Description: as §1, §2, §3, §4, §5

[8] = target: kinase named in conditions (Homo sapiens, UniProt Q02750); conditions: MAP2K1 (MEK1), 10 μM
Description: as §1, §2, §3, §4, §5

[9] = target: kinase named in conditions (Homo sapiens, UniProt Q16832); conditions: DDR2, 10 μM
Description: as §1, §2, §3, §4, §5

[10] = target: kinase named in conditions (Homo sapiens, UniProt Q04771, R206H); conditions: ACVR1 (ALK2) R206H, 10 μM
Description: as §1, §2, §3, §4, §5

[11] = target: kinase named in conditions (Homo sapiens, UniProt Q9UKE5); conditions: TNIK, 10 μM
Description: as §1, §2, §3, §4, §5

[12] = target: kinase named in conditions (Homo sapiens, UniProt P57058); conditions: HUNK, 10 μM
Description: as §1, §2, §3, §4, §5

[13] = target: kinase named in conditions (Homo sapiens, UniProt Q9NYL2); conditions: ZAK, 10 μM
Description: as §1, §2, §3, §4, §5

[14] = target: kinase named in conditions (Homo sapiens, UniProt Q16513); conditions: PKN2 (PRK2), 10 μM
Description: as §1, §2, §3, §4, §5

[15] = target: kinase named in conditions (Homo sapiens, UniProt P33981); conditions: TTK, 10 μM
Description: as §1, §2, §3, §4, §5

[16] = target: kinase named in conditions (Homo sapiens, UniProt Q8TD08); conditions: MAPK15 (ERK7), 10 μM
Description: as §1, §2, §3, §4, §5

[17] = target: kinase named in conditions (Homo sapiens, UniProt O43353); conditions: RIPK2, 10 μM
Description: as §1, §2, §3, §4, §5

[18] = target: kinase named in conditions (Homo sapiens, UniProt P10721, D820E); conditions: KIT D820E, 10 μM
Description: as §1, §2, §3, §4, §5

[19] = target: kinase named in conditions (Homo sapiens, UniProt Q8NFD2); conditions: ANKK1, 10 μM
Description: as §1, §2, §3, §4, §5

[20] = target: kinase named in conditions (Homo sapiens, UniProt P22607, G697C); conditions: FGFR3 G697C, 10 μM
Description: as §1, §2, §3, §4, §5

[21] = target: kinase named in conditions (Homo sapiens, UniProt Q99759); conditions: MAP3K3 (MEKK3), 10 μM
Description: as §1, §2, §3, §4, §5

[22] = target: kinase named in conditions (Homo sapiens, UniProt Q9HBH9); conditions: MKNK2 (MNK2), 10 μM
Description: as §1, §2, §3, §4, §5

[23] = target: kinase named in conditions (Homo sapiens, UniProt P00519, M351T); conditions: ABL1 M351T, 10 μM
Description: as §1, §2, §3, §4, §5

[24] = target: kinase named in conditions (Homo sapiens, UniProt O00311); conditions: CDC7/DBF4, 10 μM
Description: as §1, §2, §3, §4, §5

[25] = target: kinase named in conditions (Homo sapiens, UniProt P37173); conditions: TGFBR2, 10 μM
Description: as §1, §2, §3, §4, §5

[26] = target: kinase named in conditions (Homo sapiens, UniProt Q9UM73, R1275Q); conditions: ALK R1275Q, 10 μM
Description: as §1, §2, §3, §4, §5

[27] = target: kinase named in conditions (Homo sapiens, UniProt Q07912); conditions: TNK2 (ACK), 10 μM
Description: as §1, §2, §3, §4, §5

[28] = target: kinase named in conditions (Homo sapiens, UniProt Q9UM73, C1156Y); conditions: ALK C1156Y, 10 μM
Description: as §1, §2, §3, §4, §5

[29] = target: kinase named in conditions (Homo sapiens, UniProt P36897); conditions: TGFBR1 (ALK5), 10 μM
Description: as §1, §2, §3, §4, §5

[30] = target: kinase named in conditions (Homo sapiens, UniProt P22694); conditions: PRKACB (PRKAC beta), 10 μM
Description: as §1, §2, §3, §4, §5

[31] = target: kinase named in conditions (Homo sapiens, UniProt Q9BWU1); conditions: 10 μM
Description: as §1, §2, §3, §4, §5

[32] = target: kinase named in conditions (Homo sapiens, UniProt Q9UKI8); conditions: TLK1, 10 μM
Description: as §1, §2, §3, §4, §5

[33] = target: kinase named in conditions (Homo sapiens, UniProt P42680); conditions: TEC, 10 μM
Description: as §1, §2, §3, §4, §5

[34] = target: kinase named in conditions (Homo sapiens, UniProt Q14004); conditions: read-out: % Inhibition mean
Description: as §1, §2, §3, §4, §5

[35] = target: kinase named in conditions (Homo sapiens, UniProt Q99683); conditions: MAP3K5 (ASK1), 10 μM
Description: as §1, §2, §3, §4, §5

Work on `FC(F)(F)c1c(Cl)ccc(-n2ccnn2)c1Cl` [8l, 1-(2,4-Dichloro-3-(trifluoromethyl)phenyl)-1H-1,2,3-triazole] yielded an inhibition at 10 µM [1] of 15%, an inhibition at 10 µM [2] of 2% and an inhibition at 10 µM [3] of -3%. The inhibition at 10 µM [4] was -5%, the inhibition at 10 µM [5] was 6% and the inhibition at 10 µM [6] was 0%. The inhibition at 10 µM [7] was -5%, the inhibition at 10 µM [8] was 26% and the inhibition at 10 µM [9] was -3%. For the same compound, the inhibition at 10 µM [10] was 0%, the inhibition at 10 µM [11] was 0% and the inhibition at 10 µM [12] was 1%. It also gave an inhibition at 10 µM [13] of 3%, an inhibition at 10 µM [14] of -4% and an inhibition at 10 µM [15] of 5%. For the same compound, the inhibition at 10 µM [16] was 1%, the inhibition at 10 µM [17] was 5% and the inhibition at 10 µM [18] was -4%. It also gave an inhibition at 10 µM [19] of -4%, an inhibition at 10 µM [20] of -1% and an inhibition at 10 µM [21] of -14%. The inhibition at 10 µM [22] was 3%, the inhibition at 10 µM [23] was 24% and the inhibition at 10 µM [24] was -15%. It also gave an inhibition at 10 µM [25] of 7%, an inhibition at 10 µM [26] of -2% and an inhibition at 10 µM [27] of 3%. It also gave an inhibition at 10 µM [28] of 4%, an inhibition at 10 µM [29] of -1% and an inhibition at 10 µM [30] of 1%. The inhibition at 10 µM ([31]; CDK11 (Inactive)) was 12%, the inhibition at 10 µM ([31]; CDK11/cyclin C) was 23% and the inhibition at 10 µM [32] was 7%. The inhibition at 10 µM [33] was 0%, the inhibition at 10 µM [34] was 38% and the inhibition at 10 µM [35] was 17%.
